According to US8987207B2, “Peptides which have analgesic effects and which inhibit ASIC channels” (Centre National de la Recherche Scientifique—CNRS, priority 2010, dated 2015):
Bridges are numbered along the chain shown (N, C = ends). Where no end group is shown, it is not given here.

Key:
[1] = Toxicity after intrathecal injection; type: in vivo; settings: mice
[2] = Toxicity after intracerebroventricular injection; type: in vivo; settings: mice, ICV injection, even after 3 days
Protocol: The intracerebroventricular (ICV) injection of the ASICalgin-1 peptide was carried out in the third ventricle of the brain of mice (C57B16J, 7- to 11-week-old males) anesthetized with isoflurane (1.5%) using the following stereotaxic coordinates: −2.4 mm under the cortical surface, −0.5 mm in the anterior-posterior axis and +1.6 mm in the mediolateral axis relative to the bregma. The effects of an ICV injection of 5 μl of solution containing […] of ASICalgin-1 (0.34 nmol) were compared with the effects of 5 μl of saline solution vehicle (145 mM NaCl, 5 mM KCl, 2 mM CaCl2, 10 mM HEPES, pH 7.4, 0.05% bovine serum albumin) naxolone, an inhibitor of opioid receptors (especially μ-type), was injected subcutaneously at 2 mg/kg in 50 μl of 0.9% NaCl, ten minutes before the ICV injection of the ASICalgin-1 peptide.

[3] = Accelerating rotarod test (motor activity) after intrathecal injection; type: in vivo; settings: mice, IT injection, compared with vehicle, ANOVA
Protocol: The effects of the ASICalgin-1 peptide on motor activity were evaluated by means of the accelerating rotarod test. The mice were placed on an axle rotating at four rotations per minute (rpm) which undergoes a constant acceleration of 5 rpm per minute up to 40 rpm. The latency to fall is measured, with a maximum limit of 300 s.

[4] = mice, central injection; cited from earlier work
[5] = target: T1, homomeric ASIC1a channels (Homo sapiens, UniProt P78348); settings: read-out: concentration inhibiting 50% of the current produced by homomeric ASIC1a channels; cited from earlier work
T1 sequence (P78348 1-528): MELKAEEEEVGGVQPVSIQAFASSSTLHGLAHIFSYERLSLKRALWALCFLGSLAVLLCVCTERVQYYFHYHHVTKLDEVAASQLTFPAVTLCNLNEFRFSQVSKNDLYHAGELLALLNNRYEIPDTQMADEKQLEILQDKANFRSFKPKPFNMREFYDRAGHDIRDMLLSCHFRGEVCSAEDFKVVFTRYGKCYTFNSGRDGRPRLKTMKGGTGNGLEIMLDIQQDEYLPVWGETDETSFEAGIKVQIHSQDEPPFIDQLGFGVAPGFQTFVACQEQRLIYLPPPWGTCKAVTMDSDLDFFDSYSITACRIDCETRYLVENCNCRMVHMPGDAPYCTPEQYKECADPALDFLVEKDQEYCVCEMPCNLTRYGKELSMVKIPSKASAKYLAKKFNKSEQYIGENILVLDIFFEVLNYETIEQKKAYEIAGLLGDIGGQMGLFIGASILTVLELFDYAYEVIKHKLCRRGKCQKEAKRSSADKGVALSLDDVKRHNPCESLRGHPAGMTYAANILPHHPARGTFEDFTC

[6] = rats, cited from earlier work
[7] = target: T2, rat heteromeric ASIC1a+ASIC3 channels (Rattus norvegicus, UniProt O35240+P55926); settings: read-out: concentration inhibiting 50% of the current produced by rat heteromeric ASIC1a+ASIC3 channels; cited from earlier work
T2 sequence (P55926 1-526): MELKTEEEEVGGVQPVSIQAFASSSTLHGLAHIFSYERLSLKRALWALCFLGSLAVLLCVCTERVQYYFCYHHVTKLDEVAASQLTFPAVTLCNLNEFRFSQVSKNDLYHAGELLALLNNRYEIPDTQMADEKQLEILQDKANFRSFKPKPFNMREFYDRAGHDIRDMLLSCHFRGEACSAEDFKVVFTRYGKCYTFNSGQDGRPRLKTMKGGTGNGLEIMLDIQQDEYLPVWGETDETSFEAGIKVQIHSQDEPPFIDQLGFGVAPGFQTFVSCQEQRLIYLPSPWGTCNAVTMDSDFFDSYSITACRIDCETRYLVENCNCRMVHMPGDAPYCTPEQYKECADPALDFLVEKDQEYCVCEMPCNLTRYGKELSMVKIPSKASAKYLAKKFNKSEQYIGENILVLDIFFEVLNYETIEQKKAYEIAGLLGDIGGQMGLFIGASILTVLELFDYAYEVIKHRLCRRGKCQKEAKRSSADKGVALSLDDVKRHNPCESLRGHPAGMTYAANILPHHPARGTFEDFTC
T2 sequence (O35240 1-533): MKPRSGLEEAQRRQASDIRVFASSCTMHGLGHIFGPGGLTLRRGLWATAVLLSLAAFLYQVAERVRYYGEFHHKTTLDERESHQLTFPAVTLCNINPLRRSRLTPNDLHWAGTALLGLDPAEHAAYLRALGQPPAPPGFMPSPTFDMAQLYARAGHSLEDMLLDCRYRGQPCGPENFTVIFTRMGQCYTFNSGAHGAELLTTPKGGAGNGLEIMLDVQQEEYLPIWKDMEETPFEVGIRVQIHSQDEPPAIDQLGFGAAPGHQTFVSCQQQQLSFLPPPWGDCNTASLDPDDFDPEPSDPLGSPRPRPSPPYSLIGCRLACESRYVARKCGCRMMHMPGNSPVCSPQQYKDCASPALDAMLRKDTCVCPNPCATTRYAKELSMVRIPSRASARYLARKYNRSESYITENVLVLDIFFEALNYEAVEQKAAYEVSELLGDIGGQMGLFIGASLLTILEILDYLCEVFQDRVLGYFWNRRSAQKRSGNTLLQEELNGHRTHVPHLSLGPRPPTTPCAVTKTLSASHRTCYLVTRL

Substance: LKCFQHGKVVTCHRDMKFCYHNTGMPFRNLKLILQGCSSSCSETENNKCCSTDRCNK (disulfide 3-19, 12-37, 41-49, 50-55) [ASICalgin-2]
- toxicity: behavior (motor, balance, apathy, paralysis, convulsion), deaths [1]: induces no modification of behavior

Substance: LKCYQHGKVVTCHRDMKFCYHNTGMPFRNLKLILQGCSSSCSETENNKCCSTDRCNK (disulfide 3-19, 12-37, 41-49, 50-55) [ASICalgin-1]
- toxicity: behavior (motor, balance, apathy, paralysis, convulsion), deaths [2]: induces no modification of behavior
- toxicity: behavior (motor, balance, apathy, paralysis, convulsion), deaths [1]: induces no modification of behavior
- effect on motor activity, latency to fall [3]: does not induce any significant effect

Substance: PcTx1
- analgesic effect [4]: powerful analgesic effect
- IC50 [5]: 1 nM

Substance: APETx2
- analgesic effect on post-operative pain ([6]; intra-operative application): induces an analgesic effect
- analgesic effect on inflammatory and acidic pain ([6]; peripheral (subcutaneous) injection): induces an analgesic effect
- IC50 [7]: 2000 nM
